Experiments:
suspension of 4% mucine = assay: in vitro mucolytic activity, viscosity of a 4% mucine suspension; format: biochemical; settings: 0,00625 M, after hydrolysis with rat serum
Excerpt: More specifically in the test of "in vitro" mucolytic activity with a suspension of 4% mucine (II Farmaco, ed.prat.33-379, 1978), and the molar concentration being the same (0,00625 M), after hydrolysis with rat serum, the 2-f(theophyllin-7-yl)-methyloxysuccinoylthiSïpropionamido acetic acid caused a reduction of viscosity by 11,2% to take place, which is like that of tiopronin (11,5%) and higher than that of N-acetylcysteine (7,6%).

acute toxicity = settings: in vivo, ip; female mouse
[1] = test system: spasm induced by acetylcholine; assay: Konzett-Rossler test, spasm induced by acetylcholine; format: in vivo; settings: spasm induced by acetylcholine (10 mcg/kg/e.v.); guinea pig
Experimental: (§1) (0.0276-0.1406), like that of theophylline of 0.0395 mM/kg/e.v. […] (0.0133-0,893) which is definitely and significatively lower than that of theophylline (0.1026 (0.0508-0.2072). The bronchodilating activity of the compounds of formula I is consequently definitely higher than that of theophylline.

[2] = test system: spasm induced by histamine; assay: Konzett-Rossler test, spasm induced by histamine; format: in vivo; settings: spasm induced by histamine (2 mcg/kg/e.v.); guinea pig
Experimental: as §1

[3] = test system: shock induced by histamine; assay: antibronchospastic activity, shock induced by histamine; format: in vivo; settings: 0.25 mM/kg/i.p.; guinea pig; value after treatment
[4] = test system: cough induced by citric acid; assay: anticough activity, cough induced by citric acid; settings: guinea pig
[5] = test system: fluid of the respiratory tract; assay: mucolytic-expectorant activity, fluorescein elimination in the fluid of the respiratory tract; format: in vivo; settings: 1 mM/kg/os; in comparison with the controls

| SMILES | reduction of viscosity (suspension of 4% mucine) | LD50 (acute toxicity) | ED50 [1] | ED [2] | shock resistance [3] | reduction of the cough ([4]; 100 mg/kg/i.p., in comparison with the controls) | increase of the escretion of the colouring compound [5] | reduction of the cough ([4]; 5 mg/kg/i.p.) |
| --- | --- | --- | --- | --- | --- | --- | --- | --- |
| CC(SC(=O)CCC(=O)OCn1cnc2c1c(=O)n(C)c(=O)n2C)C(=O)NCC(=O)O (centres unmarked) [2-[(theophyllin-7-yl)methyloxysuccinoylthio]-propionamido acetic acid] | 11,2% | 481 mg/kg | 0.0623 mM/kg/e.v. | 0.0345 mM/kg/e.v. | 291.7 ± 43.2 s | 79% | 86% |  |
| CC(=O)N[C@@H](CS)C(=O)O [N-acetylcysteine] | 7,6% |  |  |  |  |  |  |  |
| COc1ccc2c3c1O[C@H]1[C@@H](O)C=C[C@H]4[C@@H](C2)N(C)CC[C@@]341 [codeine phosphate] |  |  |  |  |  |  |  | 87% |
| Cn1c(=O)c2[nH]cnc2n(C)c1=O [theophylline] |  |  | 0.0395 mM/kg/e.v. | 0.1026 (0.0508-0.2072) mM/kg/e.v. | 316.8 ± 27.3 s |  |  |  |
| CC(S)C(=O)NCC(=O)O (centres unmarked) [tiopronin] | 11,5% |  |  |  |  |  | 94% |  |
